Assay results published in the CheMixHub viscosity set.
± gives the uncertainty stated by the source.

Assay: xn = mol fraction of the nth substance listed

CCCCCC(=O)[O-].C[NH2+]c1ccccc1 + CN(C)C=O
viscosity [mPa·s], 101 kPa
Conditions | x1 = 0.004889 | x1 = 0.008423 | x1 = 0.01411 | x1 = 0.01792 | x1 = 0.02131 | x1 = 0.02717 | x1 = 0.0305 | x1 = 0.03458
293.15 K | 0.957 ± 0.035 | 0.969 ± 0.036 | 0.992 ± 0.036 | 1.009 ± 0.036 | 1.026 ± 0.037 | 1.052 ± 0.037 | 1.072 ± 0.037 | 1.099 ± 0.038
298.15 K | 0.916 ± 0.035 | 0.926 ± 0.035 | 0.946 ± 0.035 | 0.961 ± 0.035 | 0.975 ± 0.036 | 0.998 ± 0.036 | 1.016 ± 0.036 | 1.038 ± 0.037
303.15 K | 0.879 ± 0.034 | 0.887 ± 0.034 | 0.905 ± 0.035 | 0.918 ± 0.035 | 0.93 ± 0.035 | 0.95 ± 0.035 | 0.966 ± 0.036 | 0.985 ± 0.036
308.15 K | 0.846 ± 0.034 | 0.854 ± 0.034 | 0.869 ± 0.034 | 0.881 ± 0.034 | 0.891 ± 0.034 | 0.909 ± 0.035 | 0.923 ± 0.035 | 0.94 ± 0.035
313.15 K | 0.817 ± 0.033 | 0.824 ± 0.033 | 0.837 ± 0.033 | 0.847 ± 0.034 | 0.857 ± 0.034 | 0.873 ± 0.034 | 0.884 ± 0.034 | 0.899 ± 0.034
318.15 K | 0.791 ± 0.033 | 0.797 ± 0.033 | 0.809 ± 0.033 | 0.818 ± 0.033 | 0.826 ± 0.033 | 0.84 ± 0.033 | 0.85 ± 0.034 | 0.863 ± 0.034
323.15 K | 0.767 ± 0.032 | 0.772 ± 0.032 | 0.784 ± 0.033 | 0.791 ± 0.033 | 0.798 ± 0.033 | 0.812 ± 0.033 | 0.82 ± 0.033 | 0.831 ± 0.033

Brc1ccccc1 + CCCCCCCCCCCCCC
viscosity [mPa·s], 101 kPa
Conditions | x2 = 0.1001 | x2 = 0.2007 | x2 = 0.3005 | x2 = 0.3996 | x2 = 0.4985 | x2 = 0.5998 | x2 = 0.6987 | x2 = 0.8012 | x2 = 0.9011
298.15 K | 1.117 ± 0.07 | 1.185 ± 0.074 | 1.287 ± 0.08 | 1.389 ± 0.085 | 1.49 ± 0.091 | 1.592 ± 0.097 | 1.694 ± 0.1 | 1.796 ± 0.11 | 1.897 ± 0.11
303.15 K | 1.042 ± 0.066 | 1.13 ± 0.071 | 1.218 ± 0.076 | 1.306 ± 0.081 | 1.394 ± 0.086 | 1.482 ± 0.091 | 1.57 ± 0.095 | 1.658 ± 0.1 | 1.746 ± 0.11
308.15 K | 0.985 ± 0.063 | 1.06 ± 0.067 | 1.137 ± 0.071 | 1.213 ± 0.076 | 1.289 ± 0.08 | 1.365 ± 0.084 | 1.441 ± 0.088 | 1.517 ± 0.093 | 1.593 ± 0.097

Brc1ccccc1 + CN1CCCC1=O
viscosity [mPa·s], 101 kPa
Conditions | x2 = 0.1084 | x2 = 0.2149 | x2 = 0.3193 | x2 = 0.4219 | x2 = 0.5226 | x2 = 0.6215 | x2 = 0.7186 | x2 = 0.8141 | x2 = 0.9078
303.15 K | 1.068 ± 0.022 | 1.146 ± 0.022 | 1.22 ± 0.022 | 1.284 ± 0.022 | 1.344 ± 0.022 | 1.396 ± 0.023 | 1.441 ± 0.023 | 1.484 ± 0.023 | 1.522 ± 0.023
308.15 K | 1.023 ± 0.021 | 1.089 ± 0.022 | 1.148 ± 0.022 | 1.201 ± 0.022 | 1.25 ± 0.022 | 1.29 ± 0.022 | 1.326 ± 0.022 | 1.358 ± 0.022 | 1.382 ± 0.023
313.15 K | 0.9408 ± 0.021 | 1.005 ± 0.021 | 1.061 ± 0.022 | 1.113 ± 0.022 | 1.159 ± 0.022 | 1.199 ± 0.022 | 1.236 ± 0.022 | 1.268 ± 0.022 | 1.295 ± 0.022
318.15 K | 0.8512 ± 0.021 | 0.9073 ± 0.021 | 0.9593 ± 0.021 | 1.008 ± 0.021 | 1.052 ± 0.022 | 1.09 ± 0.022 | 1.126 ± 0.022 | 1.157 ± 0.022 | 1.184 ± 0.022

C1=C[C@H]2[C@@H](C1)[C@H]1C=C[C@@H]2C1 + CC(C)O
viscosity [mPa·s], 101.2 kPa
Conditions | x1 = 0.1015 | x1 = 0.1993 | x1 = 0.2999 | x1 = 0.4006 | x1 = 0.4998 | x1 = 0.5999 | x1 = 0.6977 | x1 = 0.7999 | x1 = 0.8995
293.15 K | 2.227 ± 0.1 | 2.228 ± 0.1 | 2.271 ± 0.1 | 2.356 ± 0.11 | 2.481 ± 0.12 | 2.69 ± 0.14 | 2.944 ± 0.16 | 3.291 ± 0.18 | 3.718 ± 0.23
303.15 K | 1.69 ± 0.076 | 1.7 ± 0.076 | 1.737 ± 0.08 | 1.811 ± 0.086 | 1.918 ± 0.095 | 2.09 ± 0.11 | 2.314 ± 0.13 | 2.581 ± 0.14 | 2.919 ± 0.18
313.15 K | 1.303 ± 0.058 | 1.322 ± 0.06 | 1.363 ± 0.063 | 1.435 ± 0.069 | 1.535 ± 0.077 | 1.689 ± 0.089 | 1.869 ± 0.1 | 2.109 ± 0.12 | 2.394 ± 0.15

CC(C)N + O=C1CCCCC1
298.15 K, 101 kPa
Conditions | viscosity [mPa·s]
x2 = 0.0627 | 0.41 ± 0.011
x2 = 0.1309 | 0.604 ± 0.015
x2 = 0.2051 | 0.844 ± 0.019
x2 = 0.2865 | 1.135 ± 0.024
x2 = 0.3759 | 1.498 ± 0.029
x2 = 0.4746 | 1.904 ± 0.033
x2 = 0.5842 | 2.083 ± 0.032
x2 = 0.7067 | 2.162 ± 0.028
x2 = 0.8442 | 2.051 ± 0.023

Cc1ncc[nH]1 + O
viscosity [mPa·s], 100 kPa
Conditions | x1 = 0.0238 | x1 = 0.0373 | x1 = 0.052 | x1 = 0.0682 | x1 = 0.086
298.15 K | 1.151 ± 0.047 | 1.312 ± 0.053 | 1.494 ± 0.061 | 1.718 ± 0.07 | 1.971 ± 0.08
303.15 K | 1.02 ± 0.041 | 1.16 ± 0.047 | 1.315 ± 0.053 | 1.498 ± 0.061 | 1.707 ± 0.069
313.15 K | 0.838 ± 0.034 | 0.933 ± 0.038 | 1.07 ± 0.044 | 1.214 ± 0.049 | 1.379 ± 0.056
323.15 K | 0.696 ± 0.028 | 0.767 ± 0.031 | 0.87 ± 0.035 | 0.978 ± 0.04 | 1.1 ± 0.045

Ic1ccccc1 + c1ccccc1
viscosity [mPa·s], 101 kPa
Conditions | 298.15 K | 308.15 K | 318.15 K | 323.15 K
x1 = 0.0668 | 0.646 ± 0.017 | 0.565 ± 0.015 | 0.499 ± 0.014 | 0.469 ± 0.013
x1 = 0.0896 | 0.66 ± 0.018 | 0.578 ± 0.016 | 0.512 ± 0.014 | 0.478 ± 0.013
x1 = 0.8 | 1.274 ± 0.034 | – | – | 0.917 ± 0.025
